Measurements reported in patent US20020111314A1, “Novel stimulation of gene expression and protein synthesis of heat shock protein 72/73 (Hsp 70)” (The Trustees of Columbia University, priority 1995, published 2002).
“Also recorded” adds a separate entry of the source. Square brackets hold non-standard residues; d marks the D form. Peptide text beside a SMILES is read from it. Nle = CCCC[C@H](N)C(=O)O

Experiments:
HepG2 cells = experiment: Total incorporation of radiolabel (TCA cpm) as indicator of cell toxicity in HepG2 cells; type: cell-based, human; conditions: ALLN 10 μg/ml
Procedure: FIGS. 3A-3B: Effects of the other protease inhibitors on Hsp70 biosynthesis in HepG2 cells. HepG2 cells were preincubated in serum-free MEM containing either 1.5% BSA alone (Control), or BSA plus 40 μg/ml of ALLN, 40 μg/ml of ALLM, 50 μg/ml of leupeptin, 50 μg/ml of pepstatin A, 25 μg/ml of E-64d, 1 mM of phenylmethylsulfonyl fluoride (PMSF), 100 KIU/ml of apotinin, 1 mM of Benzamidine (Benz), 200 μM of calpain inhibitor peptide (CIP). Radiolabeling (in the presence of protease inhibitors), lysis and immunoprecipitation were performed as described in FIG. 1. The Hsp70 specific radioactivity (A) and the amount of total incorporated radioactivity (TCA-cpm) (B) were compared with each other. All the values were presented as the mean±SD from three individual culture dishes.
Preincubation and labeling media each contained either 1.5% bovine serum albumin (BSA) alone, or BSA plus ALLN (40 μg/ml except as otherwise indicated), or BSA plus other protease inhibitors at concentrations indicated in the figure legends. At the indicated times, cells were removed from the 37° C. incubator and placed on ice, washed with cold phosphate-buffer saline (PBS) twice and lysed with lysis buffer containing 1% Triton X-100 (TX100), 1% deoxycholic acid (DOC) and 0.1% SDS in PBS containing proteinase inhibitors: 2 mM phenylmethylsulfonyl fluoride (PMSF); 2 μg/ml ALLN; 2 μg/ml leupeptin; and 2 μg/ml aprotinin. After a 30 min. incubation with lysis buffer at 4° C., the lysates were centrifuged at 14,000 g in a microcentrifuge for 5 min., and the supernatants were adjusted to 1% SDS concentration and boiled for 5 min. to denature the proteins. 1% TX100 was then added to dilute the lysates to a final concentration of 0.1% SDS. Cell lysates containing equal amounts of trichloroacetic acid (TCA)-insoluble radioactivity were used for immunoprecipitations by incubating with individual monoclonal antibody (1 μg/ml) for 2.5 hours at 4° C. Protein-A Sepharose 4B was added afterwards and the lysates incubated for another 1.5 hours at 4° C. to collect the immunocomplexes. […]

Hsp70 = Hsp70 induction in human microvascular endothelial cell line; type: cell-based; conditions: 4 hours ALLN 40 μg/ml, 30 min labeling with [3H]-leucine
[1] = system: Hsp90, Hsp60, Hsp25, Hsp27, Hsp86, Hsp104, Bip and albumin; experiment: Biosynthesis of other Hsp family members and related proteins in HepG2 cells (SDS-PAGE, immunoprecipitation); type: cell-based, human
Procedure: FIGS. 2A-2B: Effects of ALLN on Hsp25, Hsp60, Hsp90 and Bip biosynthesis. HepG2 cells were pre-treated and radiolabeled with/without ALLN for 4 hours as described in FIG. 1. Cell lysates were denatured and aliquoted for immunoprecipitation with anti-Hsp25, anti-Hsp60, anti-Hsp90, or anti-Bip antibodies respectively (1 μg/ml). Because the anti-Hsp90 antibody is of rat source, rabbit anti-rat IgG antibody was added after the first incubation and the incubation was extended for another 1 hour at 4° C. before collection with protein A-Sepharose. Immunoprecipitates were aliquoted for scintillation counting and plotted. Each value is presented as means±SD from three individual experiments.
FIGS. 7A-7B: Effects of ALLN on the biosynthesis of other members of Hsp family and related proteins. HepG2cells were pre-treated and radiolabeled with or without ALLN for 4 hours as described in FIG. 1. […]
HepG2 cells were preincubated for 4 hours in serum-free MEM and then radiolabeled with ^3H-Leucine (150 μCi/ml) in a serum-free, leucine-free medium. […] Cell lysates containing equal amounts of trichloroacetic acid (TCA)-insoluble radioactivity were used for immunoprecipitations by incubating with individual monoclonal antibody (1 μg/ml) for 2.5 hours at 4° C. […]

Structure (SMILES): CCCC[C@@H](C=O)NC(=O)[C@H](CC(C)C)NC(=O)[C@H](CC(C)C)NC(C)=O [ALLN, N-acetyl-leucyl-leucyl-norleucinal] (Ac-Leu-Leu-[Nle]-aldehyde)
- cell total incorporation of radiolabel (TCA cpm, indicator of cell toxicity) (HepG2 cells): did not change significantly
- increment of Hsp70 level (Hsp70): 35 fold
- effect on Hsp90, Hsp60, Hsp25, Hsp27, Hsp86, Hsp104, Bip or albumin levels ([1]; ALLN 4 hours): no effects; also recorded: only Hsp70 was induced
- level of a protein of about 80-90 kDa (whole-cell protein pattern, FIG. 2A) ([1]; ALLN-treated vs control): also increased but not as significantly as Hsp70
